Assay results taken from the kinase profiling compilation of Christmann-Franck et al. (2016).

Key:
Assay in all cases: Caliper, Mobility shift assay off-chip
[1] = target: EPHB4 (human) (UniProt P54760)
[2] = target: NTRK1 (human) (UniProt P04629)
[3] = target: FGFR4 (human) (UniProt P22455)
[4] = target: PTK6 (human) (UniProt Q13882)
[5] = target: MERTK (human) (UniProt Q12866)
[6] = target: CSNK2A1 (human) (UniProt P68400)
[7] = target: CSNK1G1 (human) (UniProt Q9HCP0)
[8] = target: PLK1 (human) (UniProt P53350)
[9] = target: SRPK3 (human) (UniProt Q9UPE1)
[10] = target: SGK1 (human) (UniProt O00141)
[11] = target: TYK2 JH1 JH2 (human) (UniProt P29597)
[12] = target: PRKACA (human) (UniProt P17612)
[13] = target: NTRK3 (human) (UniProt Q16288)
[14] = target: EPHA4 (human) (UniProt P54764)
[15] = target: MAPKAPK2 (human) (UniProt P49137)
Chain of MAPKAPK2 (human) (P49137 whole entry, looked up): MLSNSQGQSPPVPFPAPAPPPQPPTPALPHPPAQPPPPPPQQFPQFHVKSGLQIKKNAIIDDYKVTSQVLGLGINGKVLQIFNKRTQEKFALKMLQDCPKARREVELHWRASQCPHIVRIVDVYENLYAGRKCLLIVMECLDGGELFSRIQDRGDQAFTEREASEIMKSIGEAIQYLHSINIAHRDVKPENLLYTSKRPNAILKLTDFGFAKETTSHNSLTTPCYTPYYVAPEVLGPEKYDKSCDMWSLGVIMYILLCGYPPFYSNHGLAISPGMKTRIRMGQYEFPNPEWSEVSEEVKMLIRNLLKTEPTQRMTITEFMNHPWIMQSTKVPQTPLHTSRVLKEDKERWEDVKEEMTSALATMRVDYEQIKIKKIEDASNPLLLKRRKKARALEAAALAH

[16] = target: STK38 (human) (UniProt Q15208)
[17] = target: PAK2 (human) (UniProt Q13177)
[18] = target: CDK3 (human) (UniProt Q00526)
[19] = target: NEK9 (human) (UniProt Q8TD19)
Chain of NEK9 (human) (Q8TD19 whole entry, looked up): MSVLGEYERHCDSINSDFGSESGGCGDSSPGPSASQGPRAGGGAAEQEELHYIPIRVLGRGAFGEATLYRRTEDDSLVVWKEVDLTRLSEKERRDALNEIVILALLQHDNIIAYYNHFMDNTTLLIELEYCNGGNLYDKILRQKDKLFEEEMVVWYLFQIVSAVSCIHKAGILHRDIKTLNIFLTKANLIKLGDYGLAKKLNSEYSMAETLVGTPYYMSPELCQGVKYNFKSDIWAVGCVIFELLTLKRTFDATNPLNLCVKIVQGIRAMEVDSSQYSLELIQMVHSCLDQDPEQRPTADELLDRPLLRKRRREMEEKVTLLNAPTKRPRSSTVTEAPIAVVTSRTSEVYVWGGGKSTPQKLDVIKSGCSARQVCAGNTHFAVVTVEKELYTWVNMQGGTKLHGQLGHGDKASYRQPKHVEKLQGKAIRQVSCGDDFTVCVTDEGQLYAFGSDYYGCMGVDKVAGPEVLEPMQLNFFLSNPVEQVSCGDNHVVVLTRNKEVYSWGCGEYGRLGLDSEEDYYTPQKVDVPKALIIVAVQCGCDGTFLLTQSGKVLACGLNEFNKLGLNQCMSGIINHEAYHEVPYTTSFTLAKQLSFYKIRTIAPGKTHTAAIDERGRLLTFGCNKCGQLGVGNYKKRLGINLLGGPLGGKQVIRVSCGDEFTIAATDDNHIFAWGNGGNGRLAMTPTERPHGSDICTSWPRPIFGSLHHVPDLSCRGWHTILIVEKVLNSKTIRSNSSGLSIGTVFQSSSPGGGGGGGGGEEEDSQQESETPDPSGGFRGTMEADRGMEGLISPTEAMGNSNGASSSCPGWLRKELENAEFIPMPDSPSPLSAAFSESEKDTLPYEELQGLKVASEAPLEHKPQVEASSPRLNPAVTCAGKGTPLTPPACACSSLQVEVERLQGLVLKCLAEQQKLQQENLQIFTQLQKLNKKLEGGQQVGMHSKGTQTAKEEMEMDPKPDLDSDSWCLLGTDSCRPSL

[20] = target: NEK1 (human) (UniProt Q96PY6)
[21] = target: SRPK2 (human) (UniProt P78362)
[22] = target: TYRO3 (human) (UniProt Q06418)
[23] = target: RPS6KB2 (human) (UniProt Q9UBS0)
[24] = target: FGFR3 (human) (UniProt P22607)
[25] = target: TSSK1B (human) (UniProt Q9BXA7)
[26] = target: SLK (human) (UniProt Q9H2G2)
[27] = target: PRKCA (human) (UniProt P17252)
[28] = target: ROCK2 (human) (UniProt O75116)
Chain of ROCK2 (human) (O75116 whole entry, looked up): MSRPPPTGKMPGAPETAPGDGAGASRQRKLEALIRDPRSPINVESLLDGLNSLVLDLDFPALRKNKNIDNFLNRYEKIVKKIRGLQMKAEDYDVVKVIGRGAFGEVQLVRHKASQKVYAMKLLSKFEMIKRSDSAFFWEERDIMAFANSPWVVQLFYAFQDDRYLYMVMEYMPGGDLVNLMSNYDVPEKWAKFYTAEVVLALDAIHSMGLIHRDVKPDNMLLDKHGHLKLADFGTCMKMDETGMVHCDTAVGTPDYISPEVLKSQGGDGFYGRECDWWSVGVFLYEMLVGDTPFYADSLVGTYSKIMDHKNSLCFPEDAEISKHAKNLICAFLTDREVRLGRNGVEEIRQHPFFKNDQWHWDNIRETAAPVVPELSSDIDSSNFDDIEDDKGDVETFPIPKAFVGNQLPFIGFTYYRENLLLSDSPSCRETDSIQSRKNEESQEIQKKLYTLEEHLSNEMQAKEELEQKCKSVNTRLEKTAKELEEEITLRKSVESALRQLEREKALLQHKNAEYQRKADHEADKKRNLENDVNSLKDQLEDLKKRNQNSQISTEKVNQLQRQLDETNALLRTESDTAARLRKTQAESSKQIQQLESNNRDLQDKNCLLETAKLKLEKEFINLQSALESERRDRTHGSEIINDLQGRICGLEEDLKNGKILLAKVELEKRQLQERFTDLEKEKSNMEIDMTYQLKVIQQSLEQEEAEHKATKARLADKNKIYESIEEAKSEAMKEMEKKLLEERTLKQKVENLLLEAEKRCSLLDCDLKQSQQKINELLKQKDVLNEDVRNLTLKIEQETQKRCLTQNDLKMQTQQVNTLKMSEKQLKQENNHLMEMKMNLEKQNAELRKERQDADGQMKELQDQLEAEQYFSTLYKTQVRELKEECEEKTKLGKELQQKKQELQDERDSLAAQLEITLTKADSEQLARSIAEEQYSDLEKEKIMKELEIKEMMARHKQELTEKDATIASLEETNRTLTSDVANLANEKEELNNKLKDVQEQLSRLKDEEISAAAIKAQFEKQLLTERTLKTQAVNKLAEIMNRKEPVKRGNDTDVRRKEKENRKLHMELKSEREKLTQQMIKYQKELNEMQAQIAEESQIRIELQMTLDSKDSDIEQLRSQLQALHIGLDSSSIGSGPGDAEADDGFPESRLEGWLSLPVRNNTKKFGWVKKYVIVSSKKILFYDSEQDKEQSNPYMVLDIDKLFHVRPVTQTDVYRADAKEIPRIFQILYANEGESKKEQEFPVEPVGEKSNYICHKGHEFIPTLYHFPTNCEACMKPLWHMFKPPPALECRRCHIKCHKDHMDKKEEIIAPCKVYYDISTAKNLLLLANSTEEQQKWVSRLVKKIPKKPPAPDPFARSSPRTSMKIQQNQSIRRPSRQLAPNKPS

[29] = target: RPS6KA6 KD1 KD2 (human) (UniProt Q9UK32)
[30] = target: WNK1 (human) (UniProt Q9H4A3)
[31] = target: CDK1 (human) (UniProt P06493)
[32] = target: FLT4 (human) (UniProt P35916)
[33] = target: FES (human) (UniProt P07332)

Chain of EPHB4 (human) (P54760 whole entry, looked up): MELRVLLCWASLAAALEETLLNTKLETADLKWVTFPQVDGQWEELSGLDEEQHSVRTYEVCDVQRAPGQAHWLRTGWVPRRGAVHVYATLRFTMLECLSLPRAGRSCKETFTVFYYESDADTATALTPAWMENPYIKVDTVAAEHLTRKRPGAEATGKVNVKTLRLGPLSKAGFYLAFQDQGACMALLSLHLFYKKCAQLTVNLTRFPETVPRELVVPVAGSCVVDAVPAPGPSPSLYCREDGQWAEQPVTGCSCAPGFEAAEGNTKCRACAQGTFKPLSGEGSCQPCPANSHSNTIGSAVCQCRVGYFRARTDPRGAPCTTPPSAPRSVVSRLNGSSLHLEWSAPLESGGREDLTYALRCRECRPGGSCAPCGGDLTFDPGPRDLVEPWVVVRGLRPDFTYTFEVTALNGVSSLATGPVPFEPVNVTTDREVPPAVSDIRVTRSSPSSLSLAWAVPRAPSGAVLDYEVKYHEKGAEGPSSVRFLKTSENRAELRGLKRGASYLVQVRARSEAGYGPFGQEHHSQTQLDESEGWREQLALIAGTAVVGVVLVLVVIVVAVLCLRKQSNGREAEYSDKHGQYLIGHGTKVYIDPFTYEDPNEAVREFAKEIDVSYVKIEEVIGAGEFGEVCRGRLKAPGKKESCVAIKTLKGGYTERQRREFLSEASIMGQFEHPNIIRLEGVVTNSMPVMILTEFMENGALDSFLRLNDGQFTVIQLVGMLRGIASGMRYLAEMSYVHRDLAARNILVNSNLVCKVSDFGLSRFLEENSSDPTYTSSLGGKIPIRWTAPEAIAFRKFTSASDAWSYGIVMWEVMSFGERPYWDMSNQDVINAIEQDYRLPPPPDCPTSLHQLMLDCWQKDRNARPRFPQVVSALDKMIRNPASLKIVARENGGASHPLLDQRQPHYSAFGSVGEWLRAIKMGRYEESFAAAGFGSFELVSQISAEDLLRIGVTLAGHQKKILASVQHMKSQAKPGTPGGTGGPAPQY
Chain of PTK6 (human) (Q13882 whole entry, looked up): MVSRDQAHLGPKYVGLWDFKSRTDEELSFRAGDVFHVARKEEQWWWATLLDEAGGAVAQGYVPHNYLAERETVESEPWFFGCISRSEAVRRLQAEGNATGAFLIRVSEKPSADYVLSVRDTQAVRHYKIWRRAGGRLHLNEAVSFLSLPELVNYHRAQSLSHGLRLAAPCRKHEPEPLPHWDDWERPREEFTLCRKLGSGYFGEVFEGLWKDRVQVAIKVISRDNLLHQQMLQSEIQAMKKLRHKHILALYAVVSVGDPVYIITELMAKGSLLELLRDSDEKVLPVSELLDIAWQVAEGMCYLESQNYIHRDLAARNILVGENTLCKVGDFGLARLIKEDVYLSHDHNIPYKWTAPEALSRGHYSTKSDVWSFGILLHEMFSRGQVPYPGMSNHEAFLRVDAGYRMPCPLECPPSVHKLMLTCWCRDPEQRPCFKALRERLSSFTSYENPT
Chain of CSNK1G1 (human) (Q9HCP0 whole entry, looked up): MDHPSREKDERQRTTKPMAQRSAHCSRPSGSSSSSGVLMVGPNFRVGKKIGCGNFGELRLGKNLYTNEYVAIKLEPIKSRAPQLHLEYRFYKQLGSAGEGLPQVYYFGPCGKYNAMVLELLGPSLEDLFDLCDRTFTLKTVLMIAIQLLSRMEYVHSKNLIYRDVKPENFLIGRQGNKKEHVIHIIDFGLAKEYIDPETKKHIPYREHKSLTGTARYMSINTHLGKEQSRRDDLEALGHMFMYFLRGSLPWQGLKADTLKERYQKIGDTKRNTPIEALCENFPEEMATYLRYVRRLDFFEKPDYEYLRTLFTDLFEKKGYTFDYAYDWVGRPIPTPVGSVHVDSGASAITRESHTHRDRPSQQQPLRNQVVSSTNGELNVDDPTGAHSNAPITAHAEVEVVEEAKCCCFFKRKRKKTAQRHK
Chain of CSNK2A1 (human) (P68400 whole entry, looked up): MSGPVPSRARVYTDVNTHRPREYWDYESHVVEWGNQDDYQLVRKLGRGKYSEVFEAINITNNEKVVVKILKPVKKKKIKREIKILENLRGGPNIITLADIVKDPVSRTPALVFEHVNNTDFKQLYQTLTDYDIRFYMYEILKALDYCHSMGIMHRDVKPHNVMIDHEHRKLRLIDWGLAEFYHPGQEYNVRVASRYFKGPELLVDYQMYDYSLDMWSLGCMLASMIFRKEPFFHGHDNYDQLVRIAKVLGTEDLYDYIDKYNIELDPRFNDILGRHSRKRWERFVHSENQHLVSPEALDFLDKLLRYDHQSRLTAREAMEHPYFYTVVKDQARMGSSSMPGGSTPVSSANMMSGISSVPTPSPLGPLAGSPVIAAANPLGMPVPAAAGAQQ

In the case of `Cc1ccc(Nc2nccc(N(C)c3ccc4c(C)n(C)nc4c3)n2)cc1S(N)(=O)=O`, the inhibition ([1]; compound 0.02 µM) is reported as -2.8%, the inhibition ([1]; compound 0.2 µM) is reported as -2.6% and the inhibition ([2]; compound 0.02 µM) is reported as 7%. The inhibition ([2]; compound 0.2 µM) was 16.7%, the inhibition ([3]; compound 0.02 µM) was 0.7% and the inhibition ([3]; compound 0.2 µM) was 29.7%. The inhibition ([4]; compound 0.02 µM) was 2.5%, the inhibition ([4]; compound 0.2 µM) was 26.2% and the inhibition ([5]; compound 0.02 µM) was 3%. For the same molecule, the inhibition ([5]; compound 0.2 µM) was 15.6%, the inhibition ([6]; compound 0.02 µM) was -3% and the inhibition ([6]; compound 0.2 µM) was -2.4%. For the same molecule, the inhibition ([7]; compound 0.02 µM) was -0.9%, the inhibition ([7]; compound 0.2 µM) was -1% and the inhibition ([8]; compound 0.02 µM) was -0.7%. The inhibition ([8]; compound 0.2 µM) was -2.2%, the inhibition ([9]; compound 0.02 µM) was -1.1% and the inhibition ([9]; compound 0.2 µM) was 2.1%. The inhibition ([10]; compound 0.02 µM) was -0.7%, the inhibition ([10]; compound 0.2 µM) was -4.1% and the inhibition ([11]; compound 0.02 µM) was 3.7%. It also gave an inhibition ([11]; compound 0.2 µM) of 7.2%, an inhibition ([12]; compound 0.02 µM) of -6.3% and an inhibition ([12]; compound 0.2 µM) of -5%. The inhibition ([13]; compound 0.02 µM) was 5.4%, the inhibition ([13]; compound 0.2 µM) was 9.1% and the inhibition ([14]; compound 0.02 µM) was -4.7%. For the same molecule, the inhibition ([14]; compound 0.2 µM) was 0.2%, the inhibition ([15]; compound 0.02 µM) was 5.5% and the inhibition ([15]; compound 0.2 µM) was 1.5%. The inhibition ([16]; compound 0.02 µM) was 0.1%, the inhibition ([16]; compound 0.2 µM) was 7.5% and the inhibition ([17]; compound 0.02 µM) was 5.5%. The inhibition ([17]; compound 0.2 µM) was 2%, the inhibition ([18]; compound 0.02 µM) was -2.4% and the inhibition ([18]; compound 0.2 µM) was -4.3%. For the same molecule, the inhibition ([19]; compound 0.02 µM) was -3.7%, the inhibition ([19]; compound 0.2 µM) was 1.4% and the inhibition ([20]; compound 0.02 µM) was -4.7%. The inhibition ([20]; compound 0.2 µM) was 3.5%, the inhibition ([21]; compound 0.02 µM) was -4.8% and the inhibition ([21]; compound 0.2 µM) was -3.2%. For the same molecule, the inhibition ([22]; compound 0.02 µM) was 2.3%, the inhibition ([22]; compound 0.2 µM) was 10.6% and the inhibition ([23]; compound 0.02 µM) was 4.3%. It also gave an inhibition ([23]; compound 0.2 µM) of 6.7%, an inhibition ([24]; compound 0.02 µM) of 21.3% and an inhibition ([24]; compound 0.2 µM) of 68.5%. The inhibition ([25]; compound 0.02 µM) was -1.1%, the inhibition ([25]; compound 0.2 µM) was -1.7% and the inhibition ([26]; compound 0.02 µM) was 9%. For the same molecule, the inhibition ([26]; compound 0.2 µM) was 12.3%, the inhibition ([27]; compound 0.02 µM) was -0.8% and the inhibition ([27]; compound 0.2 µM) was -1%. It also gave an inhibition ([28]; compound 0.02 µM) of -3.7%, an inhibition ([28]; compound 0.2 µM) of -1.3% and an inhibition ([29]; compound 0.02 µM) of 1.2%. For the same molecule, the inhibition ([29]; compound 0.2 µM) was 1.7%, the inhibition ([30]; compound 0.02 µM) was 1.6% and the inhibition ([30]; compound 0.2 µM) was 5.1%. For the same molecule, the inhibition ([31]; compound 0.02 µM) was -2.9% and the inhibition ([31]; compound 0.2 µM) was -1.5%.

`CNC(=O)c1ccccc1Sc1ccc2c(/C=C/c3ccccn3)n[nH]c2c1` gave an inhibition ([1]; compound 0.001 µM) of -7.3%, an inhibition ([1]; compound 0.02 µM) of -5.5% and an inhibition ([2]; compound 0.001 µM) of 2.9%. It also gave an inhibition ([2]; compound 0.02 µM) of 21.6%, an inhibition ([3]; compound 0.001 µM) of 0% and an inhibition ([3]; compound 0.02 µM) of -3.4%. The inhibition ([32]; compound 0.001 µM) was 21.2%, the inhibition ([32]; compound 0.02 µM) was 86.7% and the inhibition ([4]; compound 0.001 µM) was -6%. It also gave an inhibition ([4]; compound 0.02 µM) of -4.8%, an inhibition ([5]; compound 0.001 µM) of 1% and an inhibition ([5]; compound 0.02 µM) of 3.9%. The inhibition ([6]; compound 0.001 µM) was -3.2%, the inhibition ([6]; compound 0.02 µM) was -4.4% and the inhibition ([7]; compound 0.001 µM) was -4.5%. For the same molecule, the inhibition ([7]; compound 0.02 µM) was -3.6%, the inhibition ([8]; compound 0.001 µM) was -5% and the inhibition ([8]; compound 0.02 µM) was -2.2%. The inhibition ([9]; compound 0.001 µM) was -3.3%, the inhibition ([9]; compound 0.02 µM) was -0.9% and the inhibition ([10]; compound 0.001 µM) was 11.3%. For the same molecule, the inhibition ([10]; compound 0.02 µM) was -1.8%, the inhibition ([11]; compound 0.001 µM) was 3.7% and the inhibition ([11]; compound 0.02 µM) was 1.6%. The inhibition ([12]; compound 0.001 µM) was -7.9%, the inhibition ([12]; compound 0.02 µM) was -10.1% and the inhibition ([13]; compound 0.001 µM) was 2.6%. For the same molecule, the inhibition ([13]; compound 0.02 µM) was 12.9%, the inhibition ([14]; compound 0.001 µM) was -6.8% and the inhibition ([14]; compound 0.02 µM) was -4.3%. For the same molecule, the inhibition ([15]; compound 0.001 µM) was 2.3%, the inhibition ([15]; compound 0.02 µM) was -0.8% and the inhibition ([16]; compound 0.001 µM) was 8%. The inhibition ([16]; compound 0.02 µM) was -1.3%, the inhibition ([17]; compound 0.001 µM) was -3.6% and the inhibition ([17]; compound 0.02 µM) was 4.1%. For the same molecule, the inhibition ([18]; compound 0.001 µM) was -4.2%, the inhibition ([18]; compound 0.02 µM) was -4.8% and the inhibition ([19]; compound 0.001 µM) was -5.6%. It also gave an inhibition ([19]; compound 0.02 µM) of -3.7%, an inhibition ([20]; compound 0.001 µM) of -7.5% and an inhibition ([20]; compound 0.02 µM) of -8.1%. For the same molecule, the inhibition ([21]; compound 0.001 µM) was -9.3%, the inhibition ([21]; compound 0.02 µM) was -6.5% and the inhibition ([22]; compound 0.001 µM) was -1.2%. The inhibition ([22]; compound 0.02 µM) was -2%, the inhibition ([23]; compound 0.001 µM) was 9.2% and the inhibition ([23]; compound 0.02 µM) was 1.8%. It also gave an inhibition ([33]; compound 0.001 µM) of 2.9%, an inhibition ([33]; compound 0.02 µM) of 1.5% and an inhibition ([24]; compound 0.001 µM) of 8.1%. It also gave an inhibition ([24]; compound 0.02 µM) of 47.4%, an inhibition ([25]; compound 0.001 µM) of -4.2% and an inhibition ([25]; compound 0.02 µM) of -3.6%. It also gave an inhibition ([26]; compound 0.001 µM) of -5.4%, an inhibition ([26]; compound 0.02 µM) of 10.3% and an inhibition ([27]; compound 0.001 µM) of 15.9%. It also gave an inhibition ([27]; compound 0.02 µM) of 0.7%, an inhibition ([28]; compound 0.001 µM) of 1.6% and an inhibition ([28]; compound 0.02 µM) of -4.7%. For the same molecule, the inhibition ([29]; compound 0.001 µM) was -7%, the inhibition ([29]; compound 0.02 µM) was -0.1% and the inhibition ([30]; compound 0.001 µM) was 4.1%. The inhibition ([30]; compound 0.02 µM) was 2.1%, the inhibition ([31]; compound 0.001 µM) was -3.7% and the inhibition ([31]; compound 0.02 µM) was -3.5%.
